Measured values reported in patent US9850283B2, “Macrocyclic inhibitors of the PD-1/PD-L1 and CD80(B7-1)/PD-L1 protein/protein interactions” (BRISTOL-MYERS SQUIBB COMPANY, priority 2013, dated 2017).
Read-outs that look alike come from different tables or passages of the source. Positions of bridges follow the written chain, without caps; N, C: chain ends. Non-standard residues stand in square brackets, D forms with d. Residues, ends and D or L forms follow the SMILES beside them. ξ: configuration not given here. Phe(3-OMe) = COc1cccc(C[C@H](N)C(=O)O)c1; Phe(4-Cl) = N[C@@H](Cc1ccc(Cl)cc1)C(=O)O; Bta = N[C@@H](Cc1csc2ccccc12)C(=O)O; Hyp = O=C(O)[C@@H]1C[C@@H](O)CN1; NMeF = CN[C@@H](Cc1ccccc1)C(=O)O; NMeNle = CCCC[C@H](NC)C(=O)O; NMeA = CN[C@@H](C)C(=O)O; Orn = NCCC[C@H](N)C(=O)O; Dap = NC[C@H](N)C(=O)O; ξC = NC(CS)C(=O)O; Sar = CNCC(=O)O

Assays:
Human PD-L1/PD-1 = target: T1, Human PD-L1/PD-1 (Homo sapiens, UniProt Q9NZQ7); assay: HTRF PD-1-Ig/PD-L1-His binding assay (human PD-L1); conditions: cluster symbol; read-out: HTRF IC50 cluster
T1 construct: made in house; host or cells: HEK293T
Outline: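 HTRF read-out: Eu cryptate anti-Ig mAb 1 nM final, APC anti-His mAb 20 nM final, added over the binding reaction. Proteins were PD-1-Ig and PD-L1-His ectodomain fusions. Buffer was dPBS, 0.1% BSA, 0.05% Tween-20.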

[1] = target: T2, LK35.2-hPD-L1 cells / PE-labeled PD-1-Ig (Homo sapiens, UniProt Q9NZQ7); assay: LK35.2-hPD-L1 cell binding high-content screening assay; format: cell-based; conditions: cluster symbol, read-out: CBA IC50 cluster
T2 construct: expressed in transfected cells; host or cells: LK35.2 mouse B cell line
Outline: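 Binding of PE-conjugated human PD-1-Ig (1 nM final) to human PD-L1 stably expressed on a mouse B-cell line (LK35.2) was measured by high-content imaging after washes. Compound and labeled PD-1-Ig were co-incubated 1 h at 37 °C with cells in RPMI/10% FCS.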

[2] = cell binding assay, cell line not given
[3] = cell line of CBA not given (LK35.2-hPD-L1 or 293T-hPD-L1)

T1 sequence (Q9NZQ7 with tags, fused parts or gaps): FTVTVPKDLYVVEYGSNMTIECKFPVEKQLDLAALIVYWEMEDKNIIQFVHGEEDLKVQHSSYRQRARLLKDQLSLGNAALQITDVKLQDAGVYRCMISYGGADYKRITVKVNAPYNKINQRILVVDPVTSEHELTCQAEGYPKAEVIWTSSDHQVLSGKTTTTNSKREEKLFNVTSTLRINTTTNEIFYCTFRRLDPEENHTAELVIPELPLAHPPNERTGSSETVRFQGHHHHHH
T2 sequence (Q9NZQ7 19-290): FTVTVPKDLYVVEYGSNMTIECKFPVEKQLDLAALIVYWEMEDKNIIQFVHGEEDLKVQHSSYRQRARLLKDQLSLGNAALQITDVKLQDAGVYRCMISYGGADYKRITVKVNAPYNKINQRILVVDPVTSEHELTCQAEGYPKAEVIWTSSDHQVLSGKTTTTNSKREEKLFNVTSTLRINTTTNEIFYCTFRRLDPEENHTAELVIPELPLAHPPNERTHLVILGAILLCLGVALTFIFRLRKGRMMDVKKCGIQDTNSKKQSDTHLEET

IC50 (Human PD-L1/PD-1) | IC50 [1, 2] | IC50 [1, 3] | SMILES
0.385 to 6.74 nM | 0.158 to 4.71 nM |  | CCCC[C@H]1C(=O)N(C)[C@@H](CCCC)C(=O)N[C@@H](CCCN)C(=O)N[C@H](C(=O)NCC(N)=O)CSCC(=O)N[C@@H](Cc2ccc(O)cc2)C(=O)N(C)[C@@H](C)C(=O)N[C@@H](CC(=O)O)C(=O)N2CCC[C@H]2C(=O)N[C@@H](Cc2c[nH]cn2)C(=O)N[C@@H](CCC(N)=O)C(=O)N2C[C@H](O)C[C@H]2C(=O)N[C@@H](Cc2c[nH]c3ccccc23)C(=O)N[C@@H](CO)C(=O)N[C@@H](Cc2c[nH]c3ccccc23)C(=O)N1C [Example 5114] ({CH2CO}-Y[NMeA]DPHQ[Hyp]WSW[NMeNle][NMeNle][Orn]CG-NH2; thioether N-14)
0.385 to 6.74 nM | 4.78 to 72.9 nM |  | CCCC[C@H]1C(=O)N(C)[C@@H](CCCC)C(=O)N[C@@H](CCCNC(=N)N)C(=O)N[C@H](C(=O)NCC(N)=O)CSCC(=O)N[C@@H](Cc2ccc(Cl)cc2)C(=O)N(C)[C@@H](C)C(=O)N[C@@H](CC(N)=O)C(=O)N2CCC[C@H]2C(=O)N[C@@H](CN)C(=O)N[C@@H](CC(C)C)C(=O)N2C[C@H](O)C[C@H]2C(=O)N[C@@H](Cc2c[nH]c3ccccc23)C(=O)N[C@@H](CO)C(=O)N[C@@H](Cc2c[nH]c3ccccc23)C(=O)N1C [Example 7044] ({CH2CO}-[Phe(4-Cl)][NMeA]NP[Dap]L[Hyp]WSW[NMeNle][NMeNle]RCG-NH2; thioether N-14)
0.385 to 6.74 nM | 0.158 to 4.71 nM |  | CCCC[C@H]1C(=O)N(C)[C@@H](CCCC)C(=O)N[C@@H](CCCNC(=N)N)C(=O)NC(C(=O)NCC(N)=O)CSCC(=O)N[C@@H](Cc2ccc(O)cc2)C(=O)N(C)[C@@H](C)C(=O)N[C@@H](CC(N)=O)C(=O)N2CCC[C@H]2C(=O)N[C@@H](Cc2cnc[nH]2)C(=O)N[C@@H](CC(N)=O)C(=O)N2CCC[C@H]2C(=O)N[C@@H](Cc2c[nH]c3ccccc23)C(=O)N[C@@H](CO)C(=O)N[C@@H](Cc2csc3ccccc23)C(=O)N1C (stereo partly shown) [Example 9064] ({CH2CO}-Y[NMeA]NPHNPWS[Bta][NMeNle][NMeNle]R[ξC]G-NH2; thioether N-14)
0.385 to 6.74 nM | 4.78 to 72.9 nM |  | CCCC[C@H]1C(=O)N(C)[C@@H](CCCC)C(=O)N[C@@H](CC(C)C)C(=O)N[C@H](C(=O)NCC(N)=O)CSCC(=O)N[C@@H](Cc2ccc(O)cc2)C(=O)N(C)[C@@H](C)C(=O)N[C@@H](CC(N)=O)C(=O)N2CCC[C@H]2C(=O)N[C@@H](Cc2c[nH]cn2)C(=O)N[C@@H](CCC(N)=O)C(=O)N2CCC[C@H]2C(=O)N[C@@H](Cc2c[nH]c3ccccc23)C(=O)N[C@@H](CO)C(=O)N[C@@H](Cc2c[nH]c3ccccc23)C(=O)N1C [Example 5079] ({CH2CO}-Y[NMeA]NPHQPWSW[NMeNle][NMeNle]LCG-NH2; thioether N-14)
6.76 to 30.3 nM | 4.78 to 72.9 nM |  | CCCC[C@H]1C(=O)N(C)CC(=O)N[C@@H](CCC(=O)O)C(=O)N[C@@H](C(C)C)C(=O)N(C)[C@@H](Cc2ccccc2)C(=O)N[C@@H](Cc2ccc(O)cc2)C(=O)N(C)CC(=O)N[C@@H](Cc2c[nH]c3ccccc23)C(=O)N[C@@H](Cc2ccc(O)cc2)C(=O)N[C@@H](CC(C)C)C(=O)N[C@H](C(=O)NCC(N)=O)CSCC(=O)N[C@@H](Cc2ccccc2)C(=O)N(C)[C@@H](Cc2ccccc2)C(=O)N1C [Example 3502] (HELM PEPTIDE1{[O=C(C[*:3])[*:2]].F.[meF].[CCCC[C@@H](C(=O)[*:2])N(C)[*:1]].[Sar].E.V.[meF].Y.[Sar].W.Y.L.C.G.[am]}$PEPTIDE1,PEPTIDE1,1:R3-14:R3$$$V2.0)
0.385 to 6.74 nM | 4.78 to 72.9 nM |  | CCCC[C@H]1C(=O)N(C)[C@@H](CCCC)C(=O)N[C@@H](CCC(=O)O)C(=O)N[C@H](C(=O)NCC(N)=O)CSCC(=O)N[C@@H](Cc2ccc(O)cc2)C(=O)N(C)[C@@H](C)C(=O)N[C@@H](CC(=O)O)C(=O)N2CCC[C@H]2C(=O)N[C@@H](Cc2c[nH]cn2)C(=O)N[C@@H](CCC(N)=O)C(=O)N2C[C@H](O)C[C@H]2C(=O)N[C@@H](Cc2c[nH]c3ccccc23)C(=O)N[C@@H](CO)C(=O)N[C@@H](Cc2c[nH]c3ccccc23)C(=O)N1C [Example 5088] ({CH2CO}-Y[NMeA]DPHQ[Hyp]WSW[NMeNle][NMeNle]ECG-NH2; thioether N-14)
> 30.5 nM | > 74.3 nM |  | CCCC[C@H]1C(=O)N(C)CC(=O)N[C@@H](CC(=O)O)C(=O)N[C@@H](C(C)C)C(=O)N(C)[C@@H](Cc2ccccc2)C(=O)N[C@@H](Cc2ccc(O)cc2)C(=O)N(C)CC(=O)N[C@@H](Cc2cccc(OC)c2)C(=O)N[C@@H](Cc2ccc(O)cc2)C(=O)N[C@@H](CC(C)C)C(=O)N[C@H](C(=O)NCC(N)=O)CSCC(=O)N[C@@H](Cc2ccccc2)C(=O)N(C)[C@@H](Cc2ccccc2)C(=O)N1C [Example 3548] ({CH2CO}-F[NMeF][NMeNle][Sar]DV[NMeF]Y[Sar][Phe(3-OMe)]YLCG-NH2; thioether N-13)
6.76 to 30.3 nM |  | 4.78 to 72.9 nM | CCCC[C@H]1C(=O)N(C)[C@@H](CCCC)C(=O)N[C@@H](CCCN)C(=O)N[C@H](C(=O)NCC(N)=O)CSCC(=O)N[C@@H](Cc2ccccc2)C(=O)N(C)[C@@H](C)C(=O)N[C@@H](CC(N)=O)C(=O)N2CCC[C@H]2C(=O)N[C@@H](Cc2cnc[nH]2)C(=O)N[C@@H](CC(C)C)C(=O)N(C)CC(=O)N[C@@H](Cc2c[nH]c3ccccc23)C(=O)N[C@@H](CO)C(=O)N[C@@H](Cc2c[nH]c3ccccc23)C(=O)N1C [Example 1055] ({CH2CO}-F[NMeA]NPHL[Sar]WSW[NMeNle][NMeNle][Orn]CG-NH2; thioether N-14)
> 30.5 nM |  | > 74.3 nM | CCCC[C@H]1C(=O)N(C)[C@@H](CCCC)C(=O)N[C@@H](CCCNC(=N)N)C(=O)N[C@H](C(=O)NCC(N)=O)CSCC(=O)N[C@@H](Cc2ccccc2)C(=O)N(C)[C@@H](C)C(=O)N[C@@H](CC(N)=O)C(=O)N2CCC[C@H]2C(=O)N[C@@H](Cc2cnc[nH]2)C(=O)NCC(=O)N(C)CC(=O)N[C@@H](Cc2c[nH]c3ccccc23)C(=O)N[C@@H](CO)C(=O)N[C@@H](Cc2c[nH]c3ccccc23)C(=O)N1C [Example 1053] ({CH2CO}-F[NMeA]NPHG[Sar]WSW[NMeNle][NMeNle]RCG-NH2; thioether N-14)
0.385 to 6.74 nM |  | 0.158 to 4.71 nM | CCCC[C@H]1C(=O)N(C)[C@@H](CCCC)C(=O)N[C@@H](CCCNC(=N)N)C(=O)N[C@H](C(=O)NCC(N)=O)CSCC(=O)N[C@@H](Cc2ccc(O)cc2)C(=O)N(C)[C@@H](C)C(=O)N[C@@H](CCC(=O)O)C(=O)N2CCC[C@H]2C(=O)N[C@@H](Cc2cnc[nH]2)C(=O)N[C@@H](CC(C)C)C(=O)N2CCC[C@H]2C(=O)N[C@@H](Cc2c[nH]c3ccccc23)C(=O)N[C@@H](CO)C(=O)N[C@@H](Cc2c[nH]c3ccccc23)C(=O)N1C [Example 1167] ({CH2CO}-Y[NMeA]EPHLPWSW[NMeNle][NMeNle]RCG-NH2; thioether N-14)
6.76 to 30.3 nM |  | 0.158 to 4.71 nM | CCCC[C@H]1C(=O)N(C)[C@@H](CCCC)C(=O)N[C@@H](CCCNC(=N)N)C(=O)N[C@H](C(=O)NCC(N)=O)CSCC(=O)N[C@@H](Cc2ccc(O)cc2)C(=O)N(C)[C@@H](C)C(=O)N[C@@H](CC(N)=O)C(=O)N2CCC[C@H]2C(=O)N[C@@H](Cc2cnc[nH]2)C(=O)N[C@@H](CC(C)C)C(=O)N2C[C@H](O)C[C@H]2C(=O)N[C@@H](Cc2c[nH]c3ccccc23)C(=O)N[C@@H](CO)C(=O)N[C@@H](Cc2csc3ccccc23)C(=O)N1C [Example 1035] ({CH2CO}-Y[NMeA]NPHL[Hyp]WS[Bta][NMeNle][NMeNle]RCG-NH2; thioether N-14)
